Where two headings read alike, the source gives them in different places.
Key:
Experiment in all cases: biochemical
Set-up in all cases: Eurofins KinaseProfiler full panel at Km ATP, residual kinase activity (%) relative to DMSO
[1] = target: T1, MST4(h) (Homo sapiens, UniProt Q9P289)
T1 construct: gene STK26
In short: (§1)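 Radiometric kinase activity assays were run with ATP at Km and compounds at 10 µM, and remaining activity (%) was reported. A separate competitive binding screen measured DNA-tagged kinase displaced from immobilized active-site ligands by qPCR, giving percent kinase still bound at 10 µM compound in DMSO.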

[2] = target: T2, MARK4(h) (Homo sapiens, UniProt Q96L34)
T2 sequence (Q96L34 1-752): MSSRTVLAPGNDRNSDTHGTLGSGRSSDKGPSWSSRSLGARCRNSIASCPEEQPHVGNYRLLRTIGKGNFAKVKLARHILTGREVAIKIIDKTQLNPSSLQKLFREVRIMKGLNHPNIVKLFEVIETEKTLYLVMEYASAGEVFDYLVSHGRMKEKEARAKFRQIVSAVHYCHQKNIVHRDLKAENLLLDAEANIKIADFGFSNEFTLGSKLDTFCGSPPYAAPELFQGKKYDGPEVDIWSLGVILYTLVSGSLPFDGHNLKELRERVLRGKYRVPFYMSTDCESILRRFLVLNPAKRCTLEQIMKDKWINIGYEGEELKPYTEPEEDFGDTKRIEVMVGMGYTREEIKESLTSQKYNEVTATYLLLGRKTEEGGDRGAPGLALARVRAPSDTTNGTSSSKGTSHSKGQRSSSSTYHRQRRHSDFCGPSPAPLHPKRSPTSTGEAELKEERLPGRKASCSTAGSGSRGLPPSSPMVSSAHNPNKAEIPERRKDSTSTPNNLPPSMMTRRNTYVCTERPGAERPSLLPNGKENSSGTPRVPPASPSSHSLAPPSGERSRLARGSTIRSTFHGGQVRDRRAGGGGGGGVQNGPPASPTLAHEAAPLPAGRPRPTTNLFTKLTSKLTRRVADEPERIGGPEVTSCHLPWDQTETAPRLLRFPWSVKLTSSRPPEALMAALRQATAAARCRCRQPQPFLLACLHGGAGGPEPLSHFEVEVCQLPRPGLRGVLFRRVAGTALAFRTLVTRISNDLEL
In short: as §1

[3] = target: BTK(R28H)(h) (Homo sapiens, UniProt Q06187, R28H)
Chain of BTK(R28H)(h) (Q06187 whole entry R28H): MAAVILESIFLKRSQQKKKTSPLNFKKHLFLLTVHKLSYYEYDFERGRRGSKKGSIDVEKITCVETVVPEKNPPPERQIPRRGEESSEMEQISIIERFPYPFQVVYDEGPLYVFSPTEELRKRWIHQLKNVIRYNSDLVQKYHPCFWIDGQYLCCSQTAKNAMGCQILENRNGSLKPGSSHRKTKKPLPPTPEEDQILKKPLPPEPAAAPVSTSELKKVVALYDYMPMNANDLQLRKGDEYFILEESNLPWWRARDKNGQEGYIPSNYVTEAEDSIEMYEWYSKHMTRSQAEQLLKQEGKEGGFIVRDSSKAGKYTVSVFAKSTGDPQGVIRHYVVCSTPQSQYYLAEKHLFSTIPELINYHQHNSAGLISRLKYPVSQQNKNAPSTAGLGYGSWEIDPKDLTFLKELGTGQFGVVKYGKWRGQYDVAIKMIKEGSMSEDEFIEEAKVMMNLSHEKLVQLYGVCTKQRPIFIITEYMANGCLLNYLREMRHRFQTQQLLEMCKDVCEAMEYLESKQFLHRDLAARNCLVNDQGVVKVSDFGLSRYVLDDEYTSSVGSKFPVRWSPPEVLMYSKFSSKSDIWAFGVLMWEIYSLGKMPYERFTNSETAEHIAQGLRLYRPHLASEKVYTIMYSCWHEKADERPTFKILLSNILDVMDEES
In short: as §1

[4] = target: MARK3(h) (Homo sapiens, UniProt P27448)
In short: as §1

[5] = target: TAF1L(h) (Homo sapiens, UniProt Q8IZX4)
Chain of TAF1L(h) (Q8IZX4 whole entry): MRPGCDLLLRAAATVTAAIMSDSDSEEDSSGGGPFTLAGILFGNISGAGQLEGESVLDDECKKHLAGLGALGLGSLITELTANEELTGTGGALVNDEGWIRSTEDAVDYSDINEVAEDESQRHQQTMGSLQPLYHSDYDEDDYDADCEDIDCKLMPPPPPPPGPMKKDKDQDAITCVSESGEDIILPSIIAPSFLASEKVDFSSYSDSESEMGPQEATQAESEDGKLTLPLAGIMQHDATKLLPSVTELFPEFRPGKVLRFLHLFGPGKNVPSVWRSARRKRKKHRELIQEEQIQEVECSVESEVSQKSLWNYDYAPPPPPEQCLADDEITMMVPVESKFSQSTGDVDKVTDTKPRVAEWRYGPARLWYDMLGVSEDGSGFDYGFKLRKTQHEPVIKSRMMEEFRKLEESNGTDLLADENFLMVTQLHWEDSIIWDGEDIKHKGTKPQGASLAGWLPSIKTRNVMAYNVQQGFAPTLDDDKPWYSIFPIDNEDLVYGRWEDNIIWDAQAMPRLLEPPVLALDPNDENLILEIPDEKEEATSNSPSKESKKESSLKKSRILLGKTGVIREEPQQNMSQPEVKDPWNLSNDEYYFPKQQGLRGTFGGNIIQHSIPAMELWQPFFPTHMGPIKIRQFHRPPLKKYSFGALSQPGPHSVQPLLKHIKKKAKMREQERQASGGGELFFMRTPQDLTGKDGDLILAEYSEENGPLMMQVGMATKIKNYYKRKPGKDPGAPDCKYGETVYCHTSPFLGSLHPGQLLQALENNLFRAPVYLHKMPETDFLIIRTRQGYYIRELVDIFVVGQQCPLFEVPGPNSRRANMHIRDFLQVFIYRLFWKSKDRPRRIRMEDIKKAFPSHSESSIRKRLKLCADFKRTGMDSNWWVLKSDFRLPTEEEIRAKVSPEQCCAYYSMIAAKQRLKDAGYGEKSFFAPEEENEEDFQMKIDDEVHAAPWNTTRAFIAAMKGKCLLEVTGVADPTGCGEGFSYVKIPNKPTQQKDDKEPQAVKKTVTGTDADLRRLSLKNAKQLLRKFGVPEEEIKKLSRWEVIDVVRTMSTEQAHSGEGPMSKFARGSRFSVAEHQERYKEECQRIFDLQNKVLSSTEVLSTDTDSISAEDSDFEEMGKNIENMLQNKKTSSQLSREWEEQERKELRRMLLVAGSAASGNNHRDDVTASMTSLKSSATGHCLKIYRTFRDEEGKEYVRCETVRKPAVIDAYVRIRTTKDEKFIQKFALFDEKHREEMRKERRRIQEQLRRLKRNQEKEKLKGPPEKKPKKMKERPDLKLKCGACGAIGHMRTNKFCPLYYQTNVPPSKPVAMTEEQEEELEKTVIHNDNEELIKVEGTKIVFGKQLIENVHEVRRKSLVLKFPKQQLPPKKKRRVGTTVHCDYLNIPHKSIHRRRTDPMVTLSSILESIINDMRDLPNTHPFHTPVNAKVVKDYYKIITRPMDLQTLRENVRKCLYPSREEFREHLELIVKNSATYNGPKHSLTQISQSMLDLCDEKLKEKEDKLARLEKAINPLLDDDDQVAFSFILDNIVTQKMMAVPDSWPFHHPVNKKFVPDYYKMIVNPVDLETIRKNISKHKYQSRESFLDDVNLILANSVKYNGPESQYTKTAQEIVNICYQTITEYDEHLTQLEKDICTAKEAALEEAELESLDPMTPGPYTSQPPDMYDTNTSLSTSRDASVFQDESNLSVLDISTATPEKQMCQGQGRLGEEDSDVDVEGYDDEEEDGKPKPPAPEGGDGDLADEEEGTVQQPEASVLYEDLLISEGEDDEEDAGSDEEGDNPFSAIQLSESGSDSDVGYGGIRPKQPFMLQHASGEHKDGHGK
In short: as §1

[6] = target: FGFR2(N549H)(h) (Homo sapiens, UniProt P21802, N549H)
Chain of FGFR2(N549H)(h) (P21802 whole entry N549H): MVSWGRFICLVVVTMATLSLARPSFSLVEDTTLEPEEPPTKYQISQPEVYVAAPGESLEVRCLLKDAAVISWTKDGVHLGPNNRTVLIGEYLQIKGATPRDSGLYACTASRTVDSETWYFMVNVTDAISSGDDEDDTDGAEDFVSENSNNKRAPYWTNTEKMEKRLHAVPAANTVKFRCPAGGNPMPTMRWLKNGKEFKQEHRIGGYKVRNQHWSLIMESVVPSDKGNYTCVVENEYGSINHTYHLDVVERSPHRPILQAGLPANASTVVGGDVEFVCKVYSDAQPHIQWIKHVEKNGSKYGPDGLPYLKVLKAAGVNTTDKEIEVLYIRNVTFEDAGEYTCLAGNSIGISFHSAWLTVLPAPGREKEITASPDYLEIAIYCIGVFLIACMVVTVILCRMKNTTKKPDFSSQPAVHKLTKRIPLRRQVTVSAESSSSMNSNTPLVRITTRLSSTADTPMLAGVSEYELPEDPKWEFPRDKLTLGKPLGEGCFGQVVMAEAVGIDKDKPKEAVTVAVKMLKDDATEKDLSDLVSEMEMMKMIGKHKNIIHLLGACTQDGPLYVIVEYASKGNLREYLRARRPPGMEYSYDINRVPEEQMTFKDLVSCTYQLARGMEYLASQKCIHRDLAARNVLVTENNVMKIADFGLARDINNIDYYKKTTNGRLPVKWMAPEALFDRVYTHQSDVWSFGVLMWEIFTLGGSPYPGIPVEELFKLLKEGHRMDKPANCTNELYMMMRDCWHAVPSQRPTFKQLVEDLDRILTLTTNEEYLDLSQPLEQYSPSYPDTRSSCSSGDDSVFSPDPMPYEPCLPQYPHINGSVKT
In short: as §1

[7] = target: Cdc7/cyclinB1(h) (Homo sapiens, UniProt O00311)
Chain of Cdc7/cyclinB1(h) (O00311 whole entry): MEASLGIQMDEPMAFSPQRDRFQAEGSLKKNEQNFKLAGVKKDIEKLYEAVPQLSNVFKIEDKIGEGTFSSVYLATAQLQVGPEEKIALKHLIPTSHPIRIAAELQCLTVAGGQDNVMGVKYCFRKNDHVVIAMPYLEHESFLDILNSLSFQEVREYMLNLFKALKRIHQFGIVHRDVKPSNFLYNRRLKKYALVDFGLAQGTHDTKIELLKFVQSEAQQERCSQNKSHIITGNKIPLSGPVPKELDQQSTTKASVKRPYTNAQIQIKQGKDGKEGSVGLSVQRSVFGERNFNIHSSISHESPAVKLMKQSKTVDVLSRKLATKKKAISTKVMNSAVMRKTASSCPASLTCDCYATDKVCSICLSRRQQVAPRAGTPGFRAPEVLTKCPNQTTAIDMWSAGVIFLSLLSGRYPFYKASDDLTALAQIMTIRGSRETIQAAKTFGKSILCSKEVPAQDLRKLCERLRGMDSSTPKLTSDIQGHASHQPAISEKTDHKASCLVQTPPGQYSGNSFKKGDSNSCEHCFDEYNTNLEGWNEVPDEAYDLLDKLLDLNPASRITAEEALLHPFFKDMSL
Chain of Cdc7/cyclinB1(h) (P14635 whole entry partner): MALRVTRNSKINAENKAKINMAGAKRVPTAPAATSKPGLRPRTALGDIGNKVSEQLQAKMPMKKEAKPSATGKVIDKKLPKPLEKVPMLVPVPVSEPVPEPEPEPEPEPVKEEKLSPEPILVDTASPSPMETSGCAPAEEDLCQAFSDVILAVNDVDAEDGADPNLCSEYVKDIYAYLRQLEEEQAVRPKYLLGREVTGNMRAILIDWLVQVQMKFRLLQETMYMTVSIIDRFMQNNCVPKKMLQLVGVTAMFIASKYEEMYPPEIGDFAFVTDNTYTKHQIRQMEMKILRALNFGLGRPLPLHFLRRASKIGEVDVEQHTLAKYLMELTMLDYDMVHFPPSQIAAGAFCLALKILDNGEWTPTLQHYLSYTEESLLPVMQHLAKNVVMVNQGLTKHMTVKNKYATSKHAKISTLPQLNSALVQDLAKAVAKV
In short: as §1

[8] = target: T3, MINK(h) (Homo sapiens, UniProt Q8N4C8)
T3 construct: gene MINK1
In short: as §1

[9] = target: T4, AMPKα1(h) (Homo sapiens, UniProt Q13131)
T4 construct: gene PRKAA1
In short: as §1

[10] = target: DYRK1B(h) (Homo sapiens, UniProt Q9Y463)
Chain of DYRK1B(h) (Q9Y463 whole entry): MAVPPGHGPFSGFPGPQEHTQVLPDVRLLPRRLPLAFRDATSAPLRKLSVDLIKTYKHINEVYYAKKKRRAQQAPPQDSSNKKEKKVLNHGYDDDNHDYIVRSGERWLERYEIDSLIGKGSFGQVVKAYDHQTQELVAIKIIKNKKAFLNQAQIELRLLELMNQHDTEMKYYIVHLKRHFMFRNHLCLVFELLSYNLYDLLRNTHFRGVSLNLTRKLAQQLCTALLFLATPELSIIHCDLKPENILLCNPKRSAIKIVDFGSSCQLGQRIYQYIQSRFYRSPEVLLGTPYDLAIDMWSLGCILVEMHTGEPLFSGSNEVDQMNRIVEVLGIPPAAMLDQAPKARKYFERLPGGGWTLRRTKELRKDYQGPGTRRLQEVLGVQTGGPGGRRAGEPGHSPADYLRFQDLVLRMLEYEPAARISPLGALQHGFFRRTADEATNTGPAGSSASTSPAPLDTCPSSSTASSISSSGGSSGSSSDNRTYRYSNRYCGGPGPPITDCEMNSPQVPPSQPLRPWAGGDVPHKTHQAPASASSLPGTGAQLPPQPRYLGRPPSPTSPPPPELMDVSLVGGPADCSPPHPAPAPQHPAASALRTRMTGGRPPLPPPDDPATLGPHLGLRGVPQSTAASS
In short: as §1

[11] = target: T5, MST2(h) (Homo sapiens, UniProt Q13188)
T5 construct: gene STK3
T5 sequence (Q13188 1-491): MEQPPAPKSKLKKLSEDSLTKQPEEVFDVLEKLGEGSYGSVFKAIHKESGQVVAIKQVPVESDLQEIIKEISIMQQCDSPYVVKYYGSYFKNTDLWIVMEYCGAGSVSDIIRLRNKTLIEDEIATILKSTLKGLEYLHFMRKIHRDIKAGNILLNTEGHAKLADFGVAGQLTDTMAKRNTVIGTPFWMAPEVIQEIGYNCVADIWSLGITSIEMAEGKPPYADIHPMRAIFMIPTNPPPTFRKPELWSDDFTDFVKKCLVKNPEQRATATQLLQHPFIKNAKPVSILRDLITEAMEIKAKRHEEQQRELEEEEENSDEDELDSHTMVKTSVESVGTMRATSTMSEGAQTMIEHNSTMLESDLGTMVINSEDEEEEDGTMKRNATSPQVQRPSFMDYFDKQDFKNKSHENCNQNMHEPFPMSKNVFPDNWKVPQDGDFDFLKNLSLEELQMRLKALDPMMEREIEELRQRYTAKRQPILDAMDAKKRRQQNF
In short: as §1

[12] = read-out: Residual activity (%) 5ay
[13] = read-out: Residual activity (%) Spautin-1 5aa
[14] = read-out: Residual activity (%) 5at
[15] = read-out: Residual activity (%) 5as

`COc1ccc2ncnc(Nc3cccc(F)c3)c2c1` [5ay, N-(3-Fluorophenyl)-6-Methoxy-4-Quinazolinamine] gave a remaining activity at 10 µM [1, 12] of 64%, a remaining activity at 10 µM [2, 12] of 100% and a remaining activity at 10 µM [3, 12] of 103%. It also gave a remaining activity at 10 µM [4, 12] of 89%, a remaining activity at 10 µM [5, 12] of 32% and a remaining activity at 10 µM [6, 12] of 66%. For the same molecule, the remaining activity at 10 µM [7, 12] was 73%, the remaining activity at 10 µM [8, 12] was 67% and the remaining activity at 10 µM [9, 12] was 100%. The remaining activity at 10 µM [10, 12] was 53% and the remaining activity at 10 µM [11, 12] was 102%.
Molecule `Fc1ccc(CNc2ncnc3ccc(F)cc23)cc1` [5aa, 6-Fluoro-N-(4-fluorobenzyl)-4-Quinazolinamine] has a remaining activity at 10 µM [1, 13] of 58%, a remaining activity at 10 µM [2, 13] of 107% and a remaining activity at 10 µM [3, 13] of 88%. For the same molecule, the remaining activity at 10 µM [4, 13] was 95%, the remaining activity at 10 µM [5, 13] was 80% and the remaining activity at 10 µM [6, 13] was 72%. For the same molecule, the remaining activity at 10 µM [7, 13] was 92%, the remaining activity at 10 µM [8, 13] was 86% and the remaining activity at 10 µM [9, 13] was 110%. The remaining activity at 10 µM [10, 13] was 88% and the remaining activity at 10 µM [11, 13] was 98%.
`Fc1ccc2ncnc(NCCc3ccc(Cl)cc3)c2c1` [5at, N-[2-(4-Chlorophenyl)Ethyl]-6-Fluoro-4-Quinazolinamine] gave a remaining activity at 10 µM [1, 14] of 72%, a remaining activity at 10 µM [2, 14] of 105% and a remaining activity at 10 µM [3, 14] of 101%. For the same molecule, the remaining activity at 10 µM [4, 14] was 85%, the remaining activity at 10 µM [5, 14] was 70% and the remaining activity at 10 µM [6, 14] was 68%. The remaining activity at 10 µM [7, 14] was 76%, the remaining activity at 10 µM [8, 14] was 89% and the remaining activity at 10 µM [9, 14] was 85%. For the same molecule, the remaining activity at 10 µM [10, 14] was 92% and the remaining activity at 10 µM [11, 14] was 81%.
For `Fc1ccc(CCNc2ncnc3ccc(F)cc23)cc1` [5as, 6-Fluoro-N-[2-(4-Fluorophenyl)Ethyl]-4-Quinazolinamine], the remaining activity at 10 µM [1, 15] was 81%, the remaining activity at 10 µM [2, 15] was 104% and the remaining activity at 10 µM [3, 15] was 103%. It also gave a remaining activity at 10 µM [4, 15] of 87%, a remaining activity at 10 µM [5, 15] of 66% and a remaining activity at 10 µM [6, 15] of 80%. The remaining activity at 10 µM [7, 15] was 79%, the remaining activity at 10 µM [8, 15] was 88% and the remaining activity at 10 µM [9, 15] was 93%. The remaining activity at 10 µM [10, 15] was 82% and the remaining activity at 10 µM [11, 15] was 112%.

— publication PMC7827406, “Structure–Activity Relationship (SAR) Study of Spautin-1 to Entail the Discovery of Novel NEK4 Inhibitors” (International Journal of Molecular Sciences, 2021)
